“And” between values parts separate entries of the source, which are not always exact repeats. Equal entries are not always repeated.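 Protocol summary: plate cells (96-well), add compound at 5 concentrations, incubate 48 h, interpolate endpoints linearly. GI50: concentration for 50% inhibition of growth. TGI is the concentration that stops growth completely.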
Experiments:
Assay in all cases: growth of human tumour cells (NCI), 48 h
[1] = test system: SN12C renal
[2] = test system: BT-549 breast
[3] = test system: MDA-N
[4] = test system: OVCAR-3 ovarian
[5] = test system: A549 NSCLC
[6] = test system: UACC-62 melanoma
[7] = test system: SF-268 CNS
[8] = test system: KM20L2 colon
[9] = test system: HCC-2998 colon
[10] = test system: DLD-1 colon

SMILES | TGI [1] | TGI [2] [µM] | TGI [3] [µM] | TGI [4] | TGI [5] [µM] | TGI [6] | TGI [7] [µM] | TGI [8] | TGI [9] [µM] | TGI [10] [µM] | GI50 [3] [µM] | GI50 [6] [µM] | GI50 [8] [µM] | GI50 [9] [µM] | GI50 [10] [nM]
COC(=O)c1ccccc1NCc1cc(O)ccc1O | 36.9 µM | 15 | 31.8 | 32.5 µM | > 83.1 | 45.5 µM | > 77.4 | > 100 µM | > 55.7 | 43 | – | – | – | – | –
COC1=C(C)C(=O)C2=C(C1=O)C1C3CC4=C(C(=O)C(OC)=C(C)C4=O)C(CNC(=O)C(C)=O)N3C(C#N)C(C2)N1C (centres undefined) | 0.348 µM and 0.144 µM | 0.0017 | 0.026 | 0.00533 µM and 0.0414 µM and < 0.0468 µM | – | 0.000825 µM and 0.0075 µM | – | 0.246 µM and 1.03 µM | – | 0.278 | 0.00351 | 0.000111 | 0.00267 | 0.000219 | 0.0404
NS(=O)(=O)c1cc2c(cc1Cl)NC(C(=O)NNC(=O)c1ccncc1)=NS2(=O)=O | > 100 µM | – | – | > 100 µM | > 100 | > 100 µM | > 100 | > 100 µM | > 100 | > 100 | – | – | – | – | –
CCOC(=O)C1=C(O)c2c(OC)ccc(OC)c2C(=O)C1=O | > 100 µM | – | – | > 100 µM | > 100 | > 100 µM | > 100 | > 100 µM | > 100 | > 100 | – | – | – | – | –
O=[N+]([O-])c1cccc2c1[nH]c1c(-c3ccccc3)nccc12 | > 73.1 µM | – | – | 4.45 µM | > 42.5 | 9.04 µM | > 100 | 10.8 µM | 13.9 | > 48.9 | – | – | – | – | –
CC(=O)OCc1cc2c(s1)C(=O)c1sccc1C2=O | 0.261 µM | – | – | 0.492 µM | 0.368 | 0.305 µM | 0.417 | 5.49 µM | 3.22 | 0.342 | – | – | – | – | –
